Experimental data taken from PubChem BioAssay AID1259407 (Chemical Carcinogenesis Research Information System (CCRIS), 2018).
Calls of active or inactive are those of the source. The rule behind the calls is not given here.

System: CCRIS mutagenicity, Ames/micronucleus/aberration tests
Assay: CCRIS mutagenicity studies

Measured: mutagenic call

O=[N+]([O-])c1ccc(CNc2ncnc3nc[nH]c23)cc1
active: Test System: AMES SALMONELLA TYPHIMURIUM, Strain/Indicator: YG1021, Metabolic Activation: RAT, LIVER, S-9, PCB, Method: PREINCUBATION active; positive | Test System: AMES SALMONELLA TYPHIMURIUM, Strain/Indicator: YG1024, Metabolic Activation: NONE, Method: PREINCUBATION active; positive
inactive: Test System: AMES SALMONELLA TYPHIMURIUM, Strain/Indicator: TA98(1,8-DNP), Metabolic Activation: NONE, Method: PREINCUBATION inactive; negative | Test System: AMES SALMONELLA TYPHIMURIUM, Strain/Indicator: TA98(1,8-DNP), Metabolic Activation: RAT, LIVER, S-9, PCB, Method: PREINCUBATION inactive; negative | Test System: AMES SALMONELLA TYPHIMURIUM, Strain/Indicator: TA98(NR), Metabolic Activation: NONE, Method: PREINCUBATION inactive; negative | Test System: AMES SALMONELLA TYPHIMURIUM, Strain/Indicator: TA98(NR), Metabolic Activation: RAT, LIVER, S-9, PCB, Method: PREINCUBATION inactive; negative | Test System: AMES SALMONELLA TYPHIMURIUM, Strain/Indicator: TA98, Metabolic Activation: NONE, Method: PREINCUBATION inactive; negative | Test System: AMES SALMONELLA TYPHIMURIUM, Strain/Indicator: TA98, Metabolic Activation: RAT, LIVER, S-9, PCB, Method: PREINCUBATION inactive; negative | Test System: AMES SALMONELLA TYPHIMURIUM, Strain/Indicator: TA100(1,8-DNP), Metabolic Activation: NONE, Method: PREINCUBATION inactive; negative | Test System: AMES SALMONELLA TYPHIMURIUM, Strain/Indicator: TA100(1,8-DNP), Metabolic Activation: RAT, LIVER, S-9, PCB, Method: PREINCUBATION inactive; negative | Test System: AMES SALMONELLA TYPHIMURIUM, Strain/Indicator: TA100(NR), Metabolic Activation: NONE, Method: PREINCUBATION inactive; negative | Test System: AMES SALMONELLA TYPHIMURIUM, Strain/Indicator: TA100(NR), Metabolic Activation: RAT, LIVER, S-9, PCB, Method: PREINCUBATION inactive; negative | Test System: AMES SALMONELLA TYPHIMURIUM, Strain/Indicator: TA100, Metabolic Activation: NONE, Method: PREINCUBATION inactive; negative | Test System: AMES SALMONELLA TYPHIMURIUM, Strain/Indicator: TA100, Metabolic Activation: RAT, LIVER, S-9, PCB, Method: PREINCUBATION inactive; negative | Test System: AMES SALMONELLA TYPHIMURIUM, Strain/Indicator: YG1020, Metabolic Activation: NONE, Method: PREINCUBATION inactive; negative | Test System: AMES SALMONELLA TYPHIMURIUM, Strain/Indicator: YG1020, Metabolic Activation: RAT, LIVER, S-9, PCB, Method: PREINCUBATION inactive; negative | Test System: AMES SALMONELLA TYPHIMURIUM, Strain/Indicator: YG1021, Metabolic Activation: NONE, Method: PREINCUBATION inactive; negative | Test System: AMES SALMONELLA TYPHIMURIUM, Strain/Indicator: YG1024, Metabolic Activation: RAT, LIVER, S-9, PCB, Method: PREINCUBATION inactive; negative | Test System: AMES SALMONELLA TYPHIMURIUM, Strain/Indicator: YG1025, Metabolic Activation: NONE, Method: PREINCUBATION inactive; negative | Test System: AMES SALMONELLA TYPHIMURIUM, Strain/Indicator: YG1025, Metabolic Activation: RAT, LIVER, S-9, PCB, Method: PREINCUBATION inactive; negative | Test System: AMES SALMONELLA TYPHIMURIUM, Strain/Indicator: YG1026, Metabolic Activation: NONE, Method: PREINCUBATION inactive; negative | Test System: AMES SALMONELLA TYPHIMURIUM, Strain/Indicator: YG1026, Metabolic Activation: RAT, LIVER, S-9, PCB, Method: PREINCUBATION inactive; negative | Test System: AMES SALMONELLA TYPHIMURIUM, Strain/Indicator: YG1029, Metabolic Activation: NONE, Method: PREINCUBATION inactive; negative | Test System: AMES SALMONELLA TYPHIMURIUM, Strain/Indicator: YG1029, Metabolic Activation: RAT, LIVER, S-9, PCB, Method: PREINCUBATION inactive; negative

CS(=O)(=O)OCCCCOS(C)(=O)=O
inactive: Test System: AMES SALMONELLA TYPHIMURIUM, Strain/Indicator: TA98, Metabolic Activation: NONE, Method: STANDARD PLATE inactive; negative | Test System: AMES SALMONELLA TYPHIMURIUM, Strain/Indicator: TA98, Metabolic Activation: S-9, Method: STANDARD PLATE inactive; negative | Test System: AMES SALMONELLA TYPHIMURIUM, Strain/Indicator: TA100, Metabolic Activation: NONE, Method: STANDARD PLATE inactive; negative | Test System: AMES SALMONELLA TYPHIMURIUM, Strain/Indicator: TA1537, Metabolic Activation: S-9, Method: STANDARD PLATE inactive; negative | Test System: E. COLI, Strain/Indicator: WP2 (HCR), Metabolic Activation: NONE, Method: STANDARD PLATE inactive; negative
active: Test System: AMES SALMONELLA TYPHIMURIUM, Strain/Indicator: TA100, Metabolic Activation: S-9, Method: STANDARD PLATE active; positive | Test System: E. COLI, Strain/Indicator: WP2 (HCR), Metabolic Activation: S-9, Method: STANDARD PLATE active; positive | Test System: MOUSE LYMPHOMA, Strain/Indicator: L5178Y (TK+/TK-), Metabolic Activation: NONE, Method: SUSPENSION/PLATE active; positive | Test System: MOUSE LYMPHOMA, Strain/Indicator: L5178Y (TK+/TK-), Metabolic Activation: RAT, LIVER, S-9, AROCLOR 1254, Method: SUSPENSION/PLATE active; positive
